Laboratory results: patent US20240246941A1, “SUBSTITUTED 4-(3-AMINOPROP-1-YL)AMINOQUINOLINE ANALOGS AS MODULATORS OF MELANOMA-ASSOCIATED ANTIGEN 11 UBIQUITIN LIGASE” (ST. JUDE CHILDREN'S RESEARCH HOSPITAL, INC., priority 2020, published 2024)
pIC50: −log10 of the molar value.

Target: interaction between GST-MAGEA11 MHD and FAM-PCF11_4 peptide (MAGE-A11:PCF11) (Homo sapiens (Human), UniProt P43364)
Experiment: TR-FRET dose response competition assay for disruption of MAGE-A11:PCF11 binding
Settings: Dose response TR-FRET screening of nine scaffold groups against MAGE-A11:PCF11; read-out: consensus IC50
From the text: TR-FRET Assays and High-throughput Screen. Terbium-anti-GST antibody, 1 M Tris pH 7.5 1 M MgCl2 and 1 M DTT were purchased from Invitrogen (Carlsbad, CA), BSA was purchased from Sigma (St. Louis, MO). Dimethyl sulfoxide (DMSO) was purchased from Fisher Scientific (Pittsburgh, PA). Black 384-well low volume plates and 384-well polypropylene compound plates were purchased from Corning Incorporated (Tewksbury, MA). The St. Jude FDA drug and Bioactive library (11,293 chemicals), Drug-like library (10,073 chemicals) and Lead-like library (10,041 chemicals) were custom assembled and purchased from commercial sources including Sigma, Microsource (Gaylordsville, CT), selleckchem (Houston, TX), ChemDiv (San Diego, CA), ChemBridge (San Diego, CA), Enamine (Monmouth Jct., NJ), and Life Chemicals (Niagara-on-the-Lake, ON, Canada). They were arrayed (10 mM in DMSO) in 384-well polypropylene compound plates with columns 1, 2, 13 and 14 empty which were reserved for controls.
The TR-FRET assay buffer with a formula of 50 mM Tris pH 7.5, 20 mM MgCl2, 0.1 mg/ml BSA and 1 mM DTT was freshly prepared before each experiment. All TR-FRET assays were performed in black 384-well plates with 20 μl/well assay volume in the TR-FRET assay buffer at room temperature (approximately 25° C.). All peptides or compounds were solubilized in DMSO. To test the competitive activity of peptides or compounds against the interaction between GST-MAGEA11 MHD and FAM-PCF11_4 peptide, 10 μl/well peptide or compound at specified concentration was dispensed into a black 384-well low volume plate, followed by 5 μl/well FAM-PCF11_4 (800 nM), 5 μl/well Tb-anti-GST (20 nM) and GST-MAGEA11 MHD (20 nM). The assay components in each well was then mixed by shaking the plate on an IKA MTS 2/4 digital microtiter plate shaker (IKA Works; Wilmington, NC, USA) at 900 RPM for 1 minute. The plate was further centrifuged in an Eppendorf 5810 centrifuge with an A-4-62 swing-bucket rotor (Eppendorf AG, Hamburg, Germany) at 201 g (1000 rpm) for 30 seconds. The plate was then incubated for 90 min with a lid to avoid light exposure to the assay components. After incubation, the fluorescent emission signals at 520 nm and 490 nm channels of individual wells were measured with a PHERAstar FS plate reader (BMG Labtech; Durham, NC, USA) by using a 340 nm excitation filter, 100 μs delay time, and 200 μs integration time. The TR-FRET fluorescence emission ratio (TR-FRET signal) for each well was presented as 10 000×520 nm/490 nm, which was used directly for curve fitting, or further converted to % Inhibition based on the respective positive and negative controls. The graphic software GraphPad Prism 4.81 (GraphPad Software; La Jolla, CA, USA) was used to generate curves and derive IC50 values of tested peptides or compounds, if applicable.
TR-FRET inhibitory activity characterization of a panel of PCF11 peptides against the interaction between GST-MAGEA11 MHD and FAM-PCF11_4 was performed as follows. In a 20 μl/well assay volume, dilutions of PCF11_1 to PCF11_8 peptides (concentrations ranged from 3.1 nM to 100 μM for peptides PCF11_4, PCF11_5, PCF11_6 and PCF11_8 in a 1-to-2 dilution pattern for 16 concentration levels, and ranged from 48.9 nM to 100 μM for peptides of PCF11_1, PCF11_2, PCF11_3 and PCF11_7 in a 1-to-2 dilution pattern for 12 concentration levels), 200 nM FAM-PCF11_4, 5 nM Tb-anti-GST and 5 nM GST-MAGEA11 were mixed together and incubated for 90 min before the TR-FRET signal for each well was measured. The final DMSO concentration was 1.1% (v/v). […] The signal of each peptide-treated well (Signalpeptide) was normalized to the positive and negative controls to derive % inhibition of the peptide at a specific concentration with equation 1. Where applicable, the % Inhibition data were fit into a Sigmoidal dose response equation to derive IC50 values.
TR-FRET screen for identifying MAGEA11 small molecule inhibitors was performed as follows.

interaction between GST-MAGEA11 MHD and FAM-PCF11_4 peptide (MAGE-A11:PCF11), sequence (P43364 218-429): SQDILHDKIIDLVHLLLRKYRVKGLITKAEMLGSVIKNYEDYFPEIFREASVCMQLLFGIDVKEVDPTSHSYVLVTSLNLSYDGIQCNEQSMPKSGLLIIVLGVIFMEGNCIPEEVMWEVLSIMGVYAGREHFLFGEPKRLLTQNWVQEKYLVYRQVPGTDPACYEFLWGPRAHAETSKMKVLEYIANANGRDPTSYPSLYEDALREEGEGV

SMILES | pIC50
O=C1OCC(c2ccc(Cl)cc2)=C1c1ccc([N+](=O)[O-])cc1 [SJ000413143-1] | 4.16
CC(=O)N(C1=C(Cl)C(=O)c2ccccc2C1=O)c1ccc(C(=O)O)cc1 [SJ000024935-1] | 4.16
COc1cccc(CNCCCNc2ccnc3cc(Cc4ccc(F)cc4Cl)ccc23)c1O [SJ000311323-1] | 4.75
CCCNC1=C(Cl)C(=O)c2ccccc2C1=O [SJ000141460-3] | 4.16
COc1ccc(C2Nc3ccccc3C(=O)N2Cc2ccccc2)cc1 (stereo not shown) [SJ000551209-1] | 4.16
COc1ccccc1Oc1ccc2c(NCCCNCc3cccc(OC)c3O)ccnc2c1 [SJ000311211-1] | 4.16
CCCN1C(=O)c2ccccc2NC1c1ccc(F)cc1 (stereo not shown) [SJ000026516-2] | 4.16
CC(=O)Nc1ccc(S(=O)(=O)N2CCN(C3=C(Cl)C(=O)c4ccccc4C3=O)CC2)cc1 [SJ000036320-1] | 4.16
CCn1c2ccccc2c2cc(CN3CCN(Cc4c[nH]c5ccccc45)CC3)ccc21 [SJ000111264-1] | 4.16
CCCn1c(-c2ccc(OC)cc2)nc2c1c(=O)[nH]c(=O)n2Cc1ccccc1 [SJ000452204-1] | 4.16
CCc1ccc(-c2nc3c(c(=O)[nH]c(=O)n3CC(C)C)n2CCOC)cc1 [SJ000420343-1] | 4.16
Clc1ccc2c(NCCCNCc3ccc4[nH]ccc4c3)ccnc2c1 [SJ000520909-2] | 4.17
NC1=C(Nc2ccc(I)cc2)C(=O)c2ccccc2C1=O [SJ000032712-1] | 4.16
CCN(CC)C(=O)Cn1cnc2cc(-c3ccccc3)sc2c1=O [SJ000425666-1] | 4.16
Nc1nc(Nc2ccccc2O)nc2ccccc12 [SJ000192933-1] | 4.16
Oc1ccc(Br)cc1CNCCCNc1ccnc2cc(Cl)ccc12 [SJ000311186-1] | 4.16
N#Cc1nc(-c2ccc(Cl)cc2)oc1N1CCOCC1 [SJ000010022-1] | 4.16
COC(=O)CSc1nc2cc(-c3ccccc3)sc2c(=O)n1CCN1CCOCC1 [SJ000451551-1] | 4.16
CC(C)C(NC1=C(Cl)C(=O)c2ccccc2C1=O)C(=O)O (stereo not shown) [SJ000244609-2] | 3.23
COc1ccc(F)cc1CNCCCNc1ccnc2cc(CC(C)C)ccc12 [SJ000311261-1] | 4.16

SMILES | pIC50
CCCn1c(=O)c2nc(-c3ccccc3)[nH]c2n(CCC)c1=O [SJ000832251-1] | 4.14
O=C1C(Cl)=C(NCCN2CCOCC2)C(=O)c2ncccc21 [SJ000312204-6] | 5.65
COCCCn1c(-c2cccc(Cl)c2)nc2c1c(=O)[nH]c(=O)n2Cc1ccccc1 [SJ000383944-1] | 4.16
Cn1c2ccccc2c2cc(C3Nc4ccccc4C(=O)N3Cc3ccccc3)ccc21 (stereo not shown) [SJ000288408-1] | 4.16
CCn1c2ccccc2c2cc(CN3CCN(C)CC3)ccc21 [SJ000142908-1] | 4.16
CC(=O)NC1=C(N)C(=O)c2ccccc2C1=O [SJ000053101-1] | 4.16
COc1ccc(F)cc1CNCCCNc1ccnc2cc(-c3cccc4ccccc34)ccc12 [SJ000311277-1] | 4.99
COc1ccc(C2Nc3ccccc3C(=O)N2Cc2ccccc2)cc1Cn1nc(C)c([N+](=O)[O-])c1C (stereo not shown) [SJ000288419-1] | 4.16
CCOC(=O)Cn1cnc2cc(-c3ccc(OC)cc3)sc2c1=O [SJ000399862-1] | 4.16
CCCN(CCCCNc1ccnc2cc(Cl)ccc12)Cc1cc(Br)ccc1O [SJ000311196-1] | 4.16
COc1cccc(CNCCCNc2ccnc3cc(Cc4ccc(C#N)cc4)ccc23)c1O [SJ000311303-1] | 4.29
COc1cccc(OCc2cc(C3Nc4ccccc4C(=O)N3Cc3ccccc3)ccc2OC)c1 (stereo not shown) [SJ000295704-1] | 4.16
CCCN1C(=O)c2ccccc2NC1c1ccc(Cl)cc1 (stereo not shown) [SJ000550608-1] | 4.16
O=C1C(Cl)=C(Nc2ccc(Cl)cc2)C(=O)c2ccccc21 [SJ000297073-1] | 4.16
CCCn1c(=O)[nH]c(=O)c2c1nc(-c1ccc(OC)c(C)c1)n2CCOC [SJ000425187-1] | 4.16
CCCCn1c(=O)[nH]c(=O)c2c1nc(-c1ccc(OC)c(Br)c1)n2CC(C)C [SJ000378943-1] | 4.16
COc1ccccc1Oc1ccc2c(NCCCNCc3cccc4c3OCO4)ccnc2c1 [SJ000311212-1] | 4.16
Fc1cccc(C(F)(F)F)c1CNCCCNc1ccnc2cc(C(F)(F)F)ccc12 [SJ000521059-1] | 4.16
C=C(C)CSc1nc2cc(-c3ccccc3)sc2c(=O)n1CCN1CCOCC1 [SJ000456069-1] | 6.07

Same assay, conditions: Table 5, dose response TR-FRET screening of 59 quinoline compounds against MAGE-A11:PCF11; read-out: TR-FRET IC50

SMILES | pIC50
COC1CCC(C(F)(F)F)C1CN(CCCCNc1ccnc2cc(Cl)ccc12)Cc1ccccc1 (stereo not shown) [SJ000520444-1] | < 4.15
Clc1ccc2c(NCCCN(Cc3ccccc3)Cc3c[nH]c4ccccc34)ccnc2c1 [SJ000520433-1] | < 4.15
FC(F)(F)Oc1ccc(CN(CCCCNc2ccnc3cc(Cl)ccc23)Cc2ccccc2)cc1 [SJ000520451-1] | < 4.15

Same assay, conditions: Table 8, representative compounds; read-out: TR-FRET IC50

SMILES | pIC50
N#Cc1cccc(CNCCCNc2ccnc3cc(Cl)ccc23)c1 [SJ000523063] | 4.16
COc1cccc(CNCCCNc2ccnc3cc(Cc4cccc(C(F)(F)F)c4)ccc23)c1O [SJ000311299] | 4.56
COc1cccc(CNCCCNc2ccnc3cc(-c4ccc5c(c4)OCO5)ccc23)c1O [SJ000311291] | 4.61
CCC(CC)c1ccc2c(NCCCNCc3cccc4c3OCO4)ccnc2c1 [SJ000311268] | 4.54
O=[N+]([O-])c1ccc(CNCCCNc2ccnc3cc(Cl)ccc23)cc1O [SJ000311191] | 4.16
COc1ccc(O)c(C(C)NCCCNC2C=CN=C3C=C(Cl)C=CC32)c1 (stereo not shown) [SJ000311188] | 4.16
c1ccc(Oc2ccc3c(NCCCNCc4cccc5c4OCO5)ccnc3c2)cc1 [SJ000311208] | 4.52
COc1cc(C)c2c(Oc3cccc(C(F)(F)F)c3)c(OC)cc(NC(C)CCCN)c2n1 (stereo not shown) [SJ000518991] | < 4.18
COC1CCCC(CNCCCNc2ccnc3cc(Cc4ccc(C#N)cc4)ccc23)C1O (stereo not shown) [SJ000311303] | 4.29
COc1ccc(OC(F)(F)F)cc1CNCCCNc1ccnc2cc(C(F)(F)F)ccc12 [SJ000521063] | 4.16
Clc1ccc2c(NCCCNCc3c4ccccc4cc4ccccc34)ccnc2c1 [SJ000361122] | 4.16
COc1cccc(CNCCCNc2ccnc3cc(CCC(C)C)ccc23)c1O [SJ000311247] | 4.16
FC(F)(F)Oc1ccc(CNCCCNc2ccnc3cc(Cl)ccc23)cc1 [SJ000521025] | 4.16
COc1cc(Cc2ccc3c(NCCCNCc4cc(F)ccc4OC)ccnc3c2)cc(OC)c1 [SJ000311313] | 4.47
COc1cccc(F)c1CNCCCNc1ccnc2cc(Cl)ccc12 [SJ000311328] | 4.16
COc1cccc(CNCCCNc2ccnc3cc(Cc4c(Cl)cccc4Cl)ccc23)c1O [SJ000311315] | 4.86
COc1cccc(CNCCCNc2ccnc3cc(Oc4ccc(Cl)cc4)ccc23)c1O [SJ000311227] | 4.68
COc1ccc(F)cc1CNCCCNc1ccnc2cc(-c3cccc4ccccc34)ccc12 [SJ000311277] | 4.99
CCC(CC)c1ccc2c(NCCCNCc3cc(F)ccc3OC)ccnc2c1 [SJ000311269] | 4.37
